Source: PubChem BioAssay (NCI)
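The compound was tested at five concentrations on cells cultured in 96-well plates, with a 48-hour exposure period. GI50: concentration for 50% inhibition of growth. The concentration for full growth arrest is given as TGI.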

Columns and labels:
Experiment in all cases: inhibition of tumour cell growth, NCI panel, 48 h
[1] = tested on: SF-268 CNS
[2] = tested on: NCI/ADR-RES ovarian
[3] = tested on: CCRF-CEM leukemia
[4] = tested on: OVCAR-5 ovarian
[5] = tested on: ACHN renal
[6] = tested on: DU-145 prostate
[7] = tested on: NCI-H226 lung
[8] = tested on: MDA-MB-231 breast
[9] = tested on: CAKI-1 renal
[10] = tested on: A498 renal

| Compound | GI50 [1] [µM] | TGI [1] [µM] | GI50 [2] [µM] | TGI [2] [µM] | GI50 [3] [µM] | TGI [3] [µM] | GI50 [4] [µM] | TGI [4] [µM] | GI50 [5] [µM] | TGI [5] [µM] | GI50 [6] [µM] | TGI [6] [µM] | GI50 [7] [µM] | TGI [7] [µM] | GI50 [8] [µM] | TGI [8] [µM] | GI50 [9] [µM] | TGI [9] [µM] | GI50 [10] [µM] | TGI [10] [µM] |
| --- | --- | --- | --- | --- | --- | --- | --- | --- | --- | --- | --- | --- | --- | --- | --- | --- | --- | --- | --- | --- |
| COc1cc(F)c(F)cc1C(=O)c1cnc(NC2CCN(S(C)(=O)=O)CC2)nc1N | 5.65 | 20 | 6.48 | > 25 | 4.86 | 18.8 | 2.62 | > 23.1 | 3.19 | > 23.6 | 5.66 | > 21.6 | 3.1 | 22 | 3.04 | > 25 | 3.79 | > 25 | 4.62 | 11.9 |
| O=C1CS/C(=N/S(=O)(=O)c2ccc(N3N=C4c5ccccc5CC4C3c3cccs3)cc2)N1C(=O)c1ccccc1 (stereo unspecified) | > 100 | > 100 | > 100 | > 100 | 37.5 | > 100 | 32.2 | > 100 | 39 | > 100 | 38.2 | > 100 | 58.5 | > 100 | 44.6 | > 100 | 63.9 | > 100 | 23.6 | 94.6 |
| O=C(O)COc1ccc(OCC(=O)O)cc1 | 0.584 | 13.5 | 56.6 | > 100 | 0.2 | 21 | 1.43 | 24.8 | 0.522 | 4.02 | 0.325 | 12.7 | 0.19 | 0.789 | 3.06 | 16.2 | 22.2 | > 100 | 1.06 | 4.87 |
| Cc1nn(C)c2ncnc(N/N=C/c3cccc(O)c3O)c12 | 0.342 | 20.4 | 0.336 | > 55.8 | 0.179 | > 52.8 | 4.06 | > 100 | 0.338 | > 32.3 | 0.558 | > 100 | 3.69 | > 49.2 | 0.486 | 39.5 | 1.31 | 16.5 | 2.97 | 16.3 |
| COc1cc(Cl)c(CC(=O)c2c[nH]c3ccccc23)cc1OC | – | > 100 | – | > 100 | – | > 57.5 | – | > 100 | – | > 100 | – | > 100 | – | 45.1 | – | > 52.6 | – | > 100 | – | > 59.4 |
| CCCCC#Cc1c(I)n(C2OC(CO[Si](C)(C)C(C)(C)C)C3OC(C)(C)OC32)c(=O)n(C(=O)c2ccccc2)c1=O (stereo unspecified) | 2.06 | 4.85 | 18.5 | 49.3 | 13.4 | 33.4 | 17.1 | 31.7 | 3 | > 100 | 2.25 | 4.68 | 17.6 | 37.6 | 17.7 | 37.7 | 3.67 | 18.4 | 30.9 | 98.3 |
| CC(C)C[C@H](NC(=O)Cn1cccc(CNC(=O)c2ccccc2)c1=O)B(O)O | 0.4 | 2.95 | > 69.1 | > 100 | 0.374 | > 20.1 | 2.76 | 38.9 | 0.626 | > 100 | 0.734 | 45.1 | 0.202 | 0.457 | 0.567 | 3.06 | 3.7 | 44.9 | 0.136 | 0.706 |
| O=C1OCC2=C1C(c1cccc(C(F)(F)F)c1)c1cc3c(cc1N2CCO)OCCO3 (stereo unspecified) | 2.54 | > 33.3 | 1.11 | > 33.3 | 1.5 | > 33.3 | 1.75 | > 33.3 | 2.83 | > 33.3 | 1.54 | > 33.3 | > 33.3 | > 33.3 | 1.7 | > 33.3 | 1.15 | > 33.3 | 0.866 | 3.25 |
| CC(C)(C)c1ccc(C2CC(=O)C3=C(C2)Nc2ccccc2N(C(=O)c2ccccc2Cl)C3c2ccc(F)cc2)cc1 (stereo unspecified) | > 100 | > 100 | > 100 | > 100 | > 100 | > 100 | > 100 | > 100 | > 100 | > 100 | > 100 | > 100 | > 100 | > 100 | > 100 | > 100 | > 100 | > 100 | 1.3 | > 100 |
| CC(=O)c1c[nH]c2ccc(-c3ccnc(Nc4ccc(NC(=O)C5CCCC5)c(CN5CCOCC5)c4)n3)cc12 | 0.033 | 0.159 | 0.306 | 2.96 | 0.0294 | – | 0.0296 | 0.222 | 0.0305 | – | 0.0362 | 2.38 | 0.0298 | 0.284 | 0.0315 | 0.294 | 0.0168 | 0.561 | 0.0204 | 0.0558 |
| Nc1nc(Cl)nc2c1ncn2C1OC(CO)C(O)C1F (stereo unspecified) | 0.223 | 21.3 | < 0.0166 | 4.98 | – | 0.424 | 5.68 | > 100 | 0.169 | > 21.2 | 0.278 | – | 0.216 | > 17.3 | 4.93 | > 26.5 | 0.0351 | 0.959 | 0.284 | 2.55 |
| Nc1c(C(=O)c2cccc(C(O)CO)c2)cnn1-c1ccc(F)cc1 (stereo unspecified) | > 25 | > 25 | > 25 | > 25 | > 25 | > 25 | > 25 | > 25 | > 25 | > 25 | > 25 | > 25 | > 25 | > 25 | > 25 | > 25 | > 25 | > 25 | > 25 | > 25 |
| CN1CCN(C(=O)c2ccc(NC(=O)Nc3ccc(-c4nc(N5CCOCC5)c5cccn5n4)cc3)cc2)CC1 | 0.0399 | 12 | 8.06 | > 81.6 | 0.0473 | 5.67 | 0.0439 | 12.8 | 0.279 | 12.8 | 0.0348 | 12 | 0.0306 | 0.345 | 0.0431 | 11.3 | 0.542 | 10.7 | 0.0172 | 0.0664 |
| O=c1[nH]c2ccccc2c(O)c1/C=N/C(=S)NC1CCCCC1 | – | > 100 | – | > 100 | – | > 100 | – | > 100 | – | > 100 | – | > 100 | – | > 100 | – | > 100 | – | > 100 | – | > 100 |
| COC(=O)CC1(O)C=CC(=O)C=C1 | – | 14.8 | – | 32.4 | – | 6.11 | – | 25 | – | 9.79 | – | 18.6 | – | 26.8 | – | 6.51 | – | 11.6 | – | 15.9 |
| Cc1ccc(S(=O)(=O)n2cc([C@@]3(O)C[C@H](CSC#N)OC3=O)c3ccccc32)cc1 | 5.1 | 19.7 | 13.5 | 38.8 | 3.17 | 25.2 | 13.2 | 28.2 | 11.2 | 27.1 | 4.39 | 15.3 | 16.8 | 32.6 | 8.44 | 22.4 | 0.0836 | 25.8 | 14.7 | 46.5 |
| COc1cc(OC)c2c(=O)cc(-c3ccccc3OCc3ccccc3)oc2c1OC | 18.7 | 73.7 | 2.96 | 18.6 | 3.18 | 67.7 | 18 | 84.3 | 6.19 | > 100 | 18.5 | > 100 | 6.25 | 44 | 5.6 | 71.8 | 3.21 | 24.2 | 9.62 | 69.9 |
| Cc1c(Nc2nccc3cc(CN4CC[C@@H](O)C4)cnc23)cccc1-c1cccc(-c2nc3cc(CN4CC[C@@H](C(=O)O)C4)cc(C#N)c3o2)c1C | 10.9 | > 100 | 14.8 | > 100 | 3.2 | > 100 | 53.7 | > 100 | 91.7 | > 100 | > 100 | > 100 | > 100 | > 100 | 7.45 | 26.2 | > 100 | > 100 | > 100 | > 100 |
| FC(F)c1ncc(-c2ccc(C(F)(F)F)cc2)c(NC2CCCCCC2)n1 | > 10 | > 10 | > 10 | > 10 | > 10 | > 10 | > 10 | > 10 | > 10 | > 10 | > 10 | > 10 | > 10 | > 10 | > 10 | > 10 | > 10 | > 10 | > 10 | > 10 |
| OCCCCC#Cc1ccccc1C#Cc1cccnc1 | 40.3 | > 100 | 28.9 | > 100 | 33.9 | > 100 | 27.5 | > 100 | 28.3 | > 100 | 47.3 | > 100 | 34.1 | > 100 | 22.4 | 69.7 | 29.1 | 83.5 | 28.5 | 88.4 |
| CCN1CCN(c2cc(C(=O)Nc3cccc(Nc4ccc5c(OC)cccc5n4)c3)cc(C(F)(F)F)c2)CC1 | 1.76 | 7.41 | 1.29 | 6.69 | 0.758 | 2.06 | 2.78 | 7.84 | 1.21 | 4.97 | 1.88 | 7.33 | 2.85 | 25.4 | 1.8 | 6.47 | 0.917 | 4.97 | 4.94 | 10.5 |
| Cc1cc(=O)[nH]c(N/N=C/c2ccccc2O)n1 | 7.75 | > 100 | 3.52 | > 100 | 4.02 | > 100 | 7.42 | > 100 | 7.39 | > 100 | 15.3 | > 100 | 24.3 | > 100 | 6.05 | > 100 | 5.19 | > 100 | 20.5 | 93.2 |
| CN(C)CCN1C(=O)c2cccc3c(/C=C/CN4C(=O)c5cccc6cccc(c56)C4=O)ccc(c23)C1=O | 51.5 | > 100 | > 100 | > 100 | 0.339 | 69.9 | 35.5 | > 100 | 28.3 | > 100 | > 100 | > 100 | 1.92 | 35.4 | 35.9 | > 100 | 13.4 | 28.6 | 34.1 | > 100 |
| CC(C)[P+](c1ccccc1)(c1ccccc1)c1ccccc1 | 5.11 | > 100 | > 100 | > 100 | 4.2 | > 100 | 28.5 | > 100 | 86.8 | > 100 | 7.29 | > 100 | 5.69 | > 100 | 10.6 | > 100 | 50.7 | > 100 | 9.22 | 74.9 |
| Fc1ccc2c(c1)C1=C(CCC2)C(c2ccc(Cl)cc2)NC(=S)N1 (stereo unspecified) | 83.8 | > 100 | 61.6 | > 100 | 31.8 | > 100 | > 100 | > 100 | 29.5 | > 100 | 49.1 | > 100 | 35.2 | > 100 | 24.2 | > 100 | 51.7 | > 100 | 43.6 | > 100 |
